Reference: patent US10487093B2, “Heterocyclic compounds, in particular 2-oxo-4,4,5,5,6,6,7,7-octahydrobenzoxazole derivatives, and their use as antibacterial compounds” (priority 2016, dated 2019)
Converted amounts (≈) assume the structure as drawn.

Legend:
[1] = system: Mycobacterium smegmatis ATCC 19420; assay: MIC, broth microdilution (CLSI) versus planktonic bacteria; format: cell-based; details: Mycolicibacterium smegmatis, ATCC19420, 16-20 h, mode of three independent experiments, read-out: MIC, Ms ATCC 19420
[2] = system: Staphylococcus aureus ATCC 29213; assay: as above; format: cell-based; details: ATCC29213; Staphylococcus aureus ATCC 29213; 16-20 h; mode of three independent experiments; read-out: MIC, Sa ATCC 29213
[3] = system: Pseudomonas aeruginosa ATCC 27853; assay: as above; format: cell-based; details: ATCC27853; Pseudomonas aeruginosa ATCC 27853; 16-20 h; mode of three independent experiments; read-out: MIC, Pa ATCC 27853
[4] = system: Streptococcus pneumoniae ATCC 49619; assay: as above; format: cell-based; details: ATCC49619; Streptococcus pneumoniae ATCC 49619; 16-20 h; mode of three independent experiments; read-out: MIC, Sp ATCC 49619
[5] = system: Haemophilus influenzae ATCC 49247; assay: as above; format: cell-based; details: ATCC49247; Haemophilus influenzae ATCC 49247; 16-20 h; mode of three independent experiments; read-out: MIC, Hi ATCC 49247
[6] = system: human hepatic cell line (HepG2 ATCC HB-8065); assay: Human cell viability assay (CellTiter-Glo); details: Homo sapiens, HepG2, 24 h, read-out: IC50 (μg/mL) HepG2
[7] = system: Escherichia coli ATCC 25922; assay: MIC, broth microdilution (CLSI) versus planktonic bacteria; format: cell-based; details: ATCC25922; Escherichia coli ATCC 25922; 16-20 h; mode of three independent experiments; read-out: MIC, Ec ATCC 25922
[8] = system: Acinetobacter baumannii NCTC 13420; assay: as above; format: cell-based; details: NCTC13420; Acinetobacter baumannii NCTC 13420; 16-20 h; mode of three independent experiments; read-out: MIC, Ab NCTC 13420
[9] = system: Enterobacter cloacae NCTC 13406; assay: as above; format: cell-based; details: NCTC13406; Enterobacter cloacae NCTC 13406; 16-20 h; mode of three independent experiments; read-out: MIC, Ecl NCTC 13406
[10] = system: Acinetobacter baumannii ATCC 19606; assay: as above; format: cell-based; details: ATCC19606; Acinetobacter baumannii ATCC 19606; 16-20 h; mode of three independent experiments; read-out: MIC, Ab ATCC 19606
[11] = system: E. coli MG1655 D87G; format: cell-based, Escherichia coli; details: compared to the isogenic parent strain E. coli MG1655; D87G mutation on DNA gyrase subunit GyrA
[12] = system: E. coli MG1655 S83L; format: cell-based, Escherichia coli; details: compared to the isogenic parent strain E. coli MG1655; S83L mutation on DNA gyrase subunit GyrA
[13] = system: E. coli ATCC BAA-2452; assay: MIC, broth microdilution (CLSI) versus planktonic bacteria; format: cell-based; details: Escherichia coli ATCC BAA-2452; 16-20 h; mode of three independent experiments; read-out: MIC, Ec ATCC BAA 2452
[14] = system: E. coli MG1655; assay: as above; format: cell-based, Escherichia coli; details: Escherichia coli, MG1655, read-out: MIC, Ec MG1655 WT
[15] = system: E. coli NCTC 13476; assay: as above; format: cell-based; details: NCTC13476; Escherichia coli NCTC 13476; 16-20 h; mode of three independent experiments; read-out: MIC, Ec NCTC 13476
[16] = system: fluoroquinolone-resistant Enterococcus faecium ATCC 700221; assay: as above; format: cell-based; details: ATCC700221, 16-20 h, mode of three independent experiments, read-out: MIC, Efm ATCC 700221
[17] = system: Enterococcus faecalis ATCC 29212; assay: as above; format: cell-based; details: ATCC29212, 16-20 h, mode of three independent experiments, read-out: MIC, Ef ATCC 29212
[18] = system: Enterococcus faecium ATCC 19434; assay: as above; format: cell-based; details: ATCC19434, 16-20 h, mode of three independent experiments, read-out: MIC, Efm ATCC 19434

Row | Compound | MIC [1] | MIC [2] | MIC [3] | MIC [4] | MIC [5] | IC50 [6] | MIC [7] | MIC [8] | MIC [9] | MIC [10] | Fold increase in MIC, E. coli MG1655 D87G [11] | Fold increase in MIC, E. coli MG1655 S83L [12] | MIC [13] | MIC [14] | MIC [15] | MIC [16] | MIC [17] | MIC [18]
1 | NCCCOc1ccc2ccc(=O)n(CCN[C@H]3CC[C@H]4[C@@H](C3)OC(=O)N4c3ccc4c(n3)NC(=O)CO4)c2n1 [Compound 5, 1-(2-{[(3aS,6S,7aR)-2-oxo-3-{3-oxo-2H,3H,4H-pyrido[3,2-b][1,4]oxazin-6-yl}-octahydro-1,3-benzoxazol-6-yl]amino}ethyl)-7-(3-aminopropoxy)-1,2-dihydro-1,8-naphthyridin-2-one] | 1 to 10 µg/mL (≈ 1.82 to 18.2 µM) | 1 to 10 µg/mL (≈ 1.82 to 18.2 µM) | 1 to 10 µg/mL (≈ 1.82 to 18.2 µM) | 10 to 100 µg/mL (≈ 18.2 to 182 µM) | > 100 µg/mL | > 100 µg/mL | 10 to 100 µg/mL (≈ 18.2 to 182 µM) | > 100 µg/mL | > 100 µg/mL | – | – | – | – | – | – | – | – | –
2 | O=C1COc2ccc(N3C(=O)O[C@@H]4C[C@@H](NCCn5c(=O)ccc6ccc(OCCO)nc65)CC[C@@H]43)nc2N1 [Compound 6, 1-(2-{[(3aS,6S,7aR)-2-oxo-3-{3-oxo-2H,3H,4H-pyrido[3,2-b][1,4]oxazin-6-yl}-octahydro-1,3-benzoxazol-6-yl]amino}ethyl)-7-(2-hydroxyethoxy)-1,2-dihydro-1,8-naphthyridin-2-one] | < 1 µg/mL | 1 to 10 µg/mL (≈ 1.86 to 18.6 µM) | 1 to 10 µg/mL (≈ 1.86 to 18.6 µM) | < 1 µg/mL | 1 to 10 µg/mL (≈ 1.86 to 18.6 µM) | > 100 µg/mL | 1 to 10 µg/mL (≈ 1.86 to 18.6 µM) | 10 to 100 µg/mL (≈ 18.6 to 186 µM) | 10 to 100 µg/mL (≈ 18.6 to 186 µM) | – | – | – | – | – | – | – | – | –
3 | COc1cccc(-c2cccc(CN[C@@H]3CC[C@@H]4[C@@H](C3)OC(=O)N4c3ccc4c(n3)NC(=O)CO4)c2)n1 [Compound 80, (3aR,6R,7aR)-6-({[3-(6-methoxypyridin-2-yl)phenyl]methyl}amino)-3-{3-oxo-2H,3H,4H-pyrido[3,2-b][1,4]oxazin-6-yl}-octahydro-1,3-benzoxazol-2-one] | – | < 1 µg/mL | 1 to 10 µg/mL (≈ 1.99 to 19.9 µM) | 1 to 10 µg/mL (≈ 1.99 to 19.9 µM) | < 1 µg/mL | 10 to 100 µg/mL (≈ 19.9 to 199 µM) | < 1 µg/mL | < 1 µg/mL | 1 to 10 µg/mL (≈ 1.99 to 19.9 µM) | < 1 µg/mL | 1 fold | 1 fold | < 1 µg/mL | < 1 µg/mL | < 1 µg/mL | 1 to 10 µg/mL (≈ 1.99 to 19.9 µM) | < 1 µg/mL | 1 to 10 µg/mL (≈ 1.99 to 19.9 µM)
4 | COc1cnc2ccc(=O)n(CCN[C@H]3CC[C@H]4[C@H](C3)OC(=O)N4c3ccc4c(n3)NC(=O)CS4)c2c1 [Compound 81, 1-(2-{[(3aS,6S,7aS)-2-oxo-3-{3-oxo-2H,3H,4H-pyrido[3,2-b][1,4]thiazin-6-yl}-octahydro-1,3-benzoxazol-6-yl]amino}ethyl)-7-methoxy-1,2-dihydro-1,5-naphthyridin-2-one] | – | < 1 µg/mL | 1 to 10 µg/mL (≈ 1.91 to 19.1 µM) | < 1 µg/mL | < 1 µg/mL | 10 to 100 µg/mL (≈ 19.1 to 191 µM) | < 1 µg/mL | < 1 µg/mL | < 1 µg/mL | < 1 µg/mL | 1 fold | 1 fold | < 1 µg/mL | < 1 µg/mL | < 1 µg/mL | < 1 µg/mL | < 1 µg/mL | < 1 µg/mL
5 | CCCOc1ccc2ccc(=O)n(CCN[C@H]3CC[C@H]4[C@H](C3)OC(=O)N4c3ccc4c(n3)NC(=O)CO4)c2c1 [Compound 91, 1-(2-{[(3aS,6S,7aS)-2-oxo-3-{3-oxo-2H,3H,4H-pyrido[3,2-b][1,4]oxazin-6-yl}-octahydro-1,3-benzoxazol-6-yl]amino}ethyl)-7-propoxy-1,2-dihydroquinolin-2-one] | – | < 1 µg/mL | 10 to 100 µg/mL (≈ 18.7 to 187 µM) | < 1 µg/mL | < 1 µg/mL | 10 to 100 µg/mL (≈ 18.7 to 187 µM) | < 1 µg/mL | < 1 µg/mL | 1 to 10 µg/mL (≈ 1.87 to 18.7 µM) | < 1 µg/mL | 1 fold | 0.5 fold | < 1 µg/mL | < 1 µg/mL | 1 to 10 µg/mL (≈ 1.87 to 18.7 µM) | 1 to 10 µg/mL (≈ 1.87 to 18.7 µM) | 1 to 10 µg/mL (≈ 1.87 to 18.7 µM) | 1 to 10 µg/mL (≈ 1.87 to 18.7 µM)
